Literature values as cited in paper PMC10413841, “Exploration of Thiourea-Based Scaffolds for the Construction of Bacterial Ureases Inhibitors” (ACS Omega, 2023).

Columns and labels:
[1] = biological target: purified enzyme from P. mirabilis; set-up: method as in PMID 25699141; details: previously reported; read-out: Ki against purified enzyme from P. mirabilis; cited from earlier work
[2] = tested on: live cells of P. mirabilis PCM 543; set-up: method as in PMID 27550502; details: 1 mM acetohydroxamate; remaining ureolysis in P. mirabilis PCM 543; cited from earlier work
[3] = biological target: T1, native S. pasteurii CCM 2056 urease (Sporosarcina pasteurii, UniProt P41020); set-up: method as in PMID 25699141; details: previously reported; read-out: Ki against purified enzyme from S. pasteurii; cited from earlier work
T1 construct: The S. pasteurii CCM 2056 cells were used as the source of a native enzyme; endogenous in cells; host or cells: S. pasteurii CCM 2056 culture; endogenous enzyme purified in house from the sonicated cell extract by five-step chromatography
T1 sequence (P41022 whole entry): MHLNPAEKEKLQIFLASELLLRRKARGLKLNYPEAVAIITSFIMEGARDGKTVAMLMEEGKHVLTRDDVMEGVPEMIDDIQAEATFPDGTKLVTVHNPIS
T1 sequence (P41021 whole entry, further chain): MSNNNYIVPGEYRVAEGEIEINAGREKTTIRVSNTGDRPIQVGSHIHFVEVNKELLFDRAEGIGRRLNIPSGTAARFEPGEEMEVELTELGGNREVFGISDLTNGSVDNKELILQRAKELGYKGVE
T1 sequence (P41020 whole entry): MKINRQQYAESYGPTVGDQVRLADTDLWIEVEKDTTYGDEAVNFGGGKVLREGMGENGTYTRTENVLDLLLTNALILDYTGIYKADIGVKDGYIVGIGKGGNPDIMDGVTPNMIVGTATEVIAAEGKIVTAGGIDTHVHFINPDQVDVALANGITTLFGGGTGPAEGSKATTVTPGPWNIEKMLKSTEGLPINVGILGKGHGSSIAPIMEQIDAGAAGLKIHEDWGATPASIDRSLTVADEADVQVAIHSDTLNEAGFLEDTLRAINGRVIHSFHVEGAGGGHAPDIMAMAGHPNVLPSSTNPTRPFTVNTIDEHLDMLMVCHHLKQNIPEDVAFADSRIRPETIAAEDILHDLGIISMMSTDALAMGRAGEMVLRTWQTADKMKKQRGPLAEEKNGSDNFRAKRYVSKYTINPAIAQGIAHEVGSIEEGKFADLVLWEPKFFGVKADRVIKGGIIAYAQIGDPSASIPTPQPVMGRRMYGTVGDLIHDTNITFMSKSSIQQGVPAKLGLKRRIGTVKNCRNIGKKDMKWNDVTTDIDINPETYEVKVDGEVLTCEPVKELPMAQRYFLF

Compound: CC(=O)NO [acetohydroxamate]
- Ki [1]: 5.7 ± 0.4 µM
- whole-cell ureolysis reduced to [2]: 42 ± 6%
- Ki [3]: 3.3 ± 0.4 µM
